These results are taken from ChEMBL document CHEMBL1136559, “Discovery, SAR, synthesis, pharmacokinetic and biochemical characterization of A-192411: a novel fungicidal lipopeptide-(I)” (Bioorg Med Chem Lett, 2003).

Broadly, the MIC is the smallest concentration in the dilution series that meets the test's criterion for growth inhibition.

What all share (assay type): functional
For assay [1], the system named is Candida albicans. As to the kind of experiment: Antifungal activity against Candida albicans ATCC 38247.
For assay [2], the system named is Candida albicans. In words: Antifungal activity against Candida albicans ATCC 62376.
In another assay the test system is Naganishia albida. As to the kind of experiment: Antifungal activity against Cryptococcus albidus ATCC 34140.
Assay [3] relates to Candida albicans. In words: Antifungal activity against Candida albicans CCH 442.
The subject of the next assay is Aspergillus niger. In words: Antifungal activity against Aspergillus niger ATCC 16404.
In a further assay the test system is Kluyveromyces marxianus. As to the kind of experiment: Antifungal activity against Candida kefyr ATCC 28838.
The subject of assay [4] is Candida albicans. As to the kind of experiment: Antifungal activity against Candida albicans ATCC 10231.
Assay [5] relates to Candida albicans. As to the kind of experiment: Antifungal activity against Candida albicans 579A.
Another assay deals with Nakaseomyces glabratus. In words: Antifungal activity against Torulopsis glabrata ATCC 15545.
The subject of assay [6] is Candida albicans. As to the kind of experiment: Antifungal activity against Candida albicans CAF-2.
Another assay concerns [Candida] zeylanoides. In words: Antifungal activity against Candida zeylanoides NRRL Y-112.
[7] abbreviates: Candida albicans, ATCC 38247, read-out: MIC.
Where [8] appears, read: Candida albicans, ATCC 62376, read-out: MIC.
[9] abbreviates: Naganishia albida, ATCC 34140, read-out: MIC.
Setting [10] is: Candida albicans, read-out: MIC.
The mark [11] stands for this setting: Aspergillus niger, ATCC 16404, read-out: MIC.
[12] abbreviates: Kluyveromyces marxianus, ATCC 28838, read-out: MIC.
[13] abbreviates: Candida albicans, ATCC 10231, read-out: MIC.
The mark [14] stands for this setting: Nakaseomyces glabratus, ATCC 15545, read-out: MIC.
Setting [15] is: Dujonia zeylanoides, read-out: MIC.

In brackets after ≈: the same amount, converted by molar mass. Starred links: 1 amine or outer side, 2 acyl side, 3 side chain; linkers in the order of their positions; H or OH if unused. Positions of bridges follow the written chain, without caps; N, C: chain ends. Non-standard residues stand in square brackets, D forms with d. Residues, ends and D or L forms follow the SMILES beside them. *: point of attachment. pTerphenylCO(4''-OnC5H11) = CCCCCOc1ccc(-c2ccc(-c3ccc(C(=O)*)cc3)cc2)cc1; Pro(cis-4-guanidino) = NC(N)=N[C@@H]1CN[C@H](C(=O)O)C1; hTyr(3-COCH2NH2) = NCC(=O)c1cc(CC[C@H](N)C(=O)O)ccc1O; X7 = CCCCCCCCOc1ccc(-c2ccc(-c3ccc(C(=O)*)cc3)cc2)cc1; X3 = CCCCCCCCOc1ccc(N2CCN(c3ccc(C(=O)*)cc3)CC2)cc1; X5 = CCCCCCCCN1CCN(c2ccc(-c3ccc(C(=O)*)cc3)cc2)CC1; X4 = NCCC(=O)c1cc(CC[C@H](N[*:1])C(=O)[*:2])ccc1O; Pro(4S-NH2) = N[C@@H]1CN[C@H](C(=O)O)C1; Hyp = O=C(O)[C@@H]1C[C@@H](O)CN1; Orn = NCCC[C@H](N)C(=O)O

Regarding `CCCCCCCCOc1ccc(N2CCN(c3ccc(C(=O)N[C@H]4CCCNC(=O)[C@@H]5C[C@H](N)CN5C(=O)[C@H]([C@@H](C)O)NC(=O)[C@H](CCc5ccc(O)c(C(=O)CN)c5)NC(=O)[C@@H]5C[C@@H](O)CN5C(=O)[C@H]([C@@H](C)O)NC4=O)cc3)CC2)cc1` (X3-[Orn]T[Hyp][hTyr(3-COCH2NH2)]T[Pro(4S-NH2)]; lactam 1-C), the minimum inhibitory concentration (MIC) with Candida albicans [1] (setting [7]) stood at 0.2 µg/mL (≈ 0.171 µM); in the assay with Candida albicans [2] (setting [8]), 0.1 µg/mL (≈ 0.0856 µM); with Naganishia albida (setting [9]) it was 6.25 µg/mL (≈ 5.35 µM); in the assay with Candida albicans [3] (setting [10]), 0.1 µg/mL (≈ 0.0856 µM); with Aspergillus niger (setting [11]) it was 1.56 µg/mL (≈ 1.34 µM); with Kluyveromyces marxianus (setting [12]) it was 1.56 µg/mL (≈ 1.34 µM). For the same molecule, the MIC in the assay with Candida albicans [4] (setting [13]) worked out at 0.1 µg/mL (≈ 0.0856 µM); in the assay with Candida albicans [5] (setting [10]) it was 0.1 µg/mL (≈ 0.0856 µM); with Nakaseomyces glabratus (setting [14]), 0.2 µg/mL (≈ 0.171 µM); in the assay on Candida albicans [6] (setting [10]), 0.1 µg/mL (≈ 0.0856 µM); in assay [Candida] zeylanoides (setting [15]), 0.1 µg/mL (≈ 0.0856 µM).
Consider `CCCCCOc1ccc(-c2ccc(-c3ccc(C(=O)N[C@H]4CCCNC(=O)[C@@H]5C[C@H](N=C(N)N)CN5C(=O)[C@H]([C@@H](C)O)NC(=O)[C@H](CCc5ccc(O)c(C(=O)CN)c5)NC(=O)[C@@H]5C[C@@H](O)CN5C(=O)[C@H]([C@@H](C)O)NC4=O)cc3)cc2)cc1` (stereo in doubt; 1), for which the MIC was 0.2 µg/mL (≈ 0.172 µM) in the assay on Candida albicans [1]; 0.2 µg/mL (≈ 0.172 µM) in the assay on Candida albicans [2] (setting [8]); 12.5 µg/mL (≈ 10.8 µM) in the assay on Naganishia albida (setting [9]); 0.2 µg/mL (≈ 0.172 µM) in the assay with Candida albicans [3]; 6.25 µg/mL (≈ 5.39 µM) in the assay with Aspergillus niger (setting [11]); 1.56 µg/mL (≈ 1.34 µM) with Kluyveromyces marxianus (setting [12]). In addition, the minimum inhibitory concentration (MIC) is 0.2 µg/mL (≈ 0.172 µM) with Candida albicans [4]; 0.2 µg/mL (≈ 0.172 µM) in the assay on Candida albicans [5] (setting [10]); 1.56 µg/mL (≈ 1.34 µM) in the assay with Nakaseomyces glabratus (setting [14]); 0.2 µg/mL (≈ 0.172 µM) with Candida albicans [6] (setting [10]); 0.39 µg/mL (≈ 0.336 µM) in assay [Candida] zeylanoides.
For the molecule `CCCCCOc1ccc(-c2ccc(-c3ccc(C(=O)N[C@H]4CCCNC(=O)[C@@H]5C[C@H](N=C(N)N)CN5C(=O)[C@H]([C@@H](C)O)NC(=O)[C@H](CCc5ccc(O)c(C(=O)CN)c5)NC(=O)[C@@H]5C[C@@H](O)CN5C(=O)[C@H]([C@@H](C)O)NC4=O)cc3)cc2)cc1` (stereo in doubt; 4), the MIC with Candida albicans [1] amounted to 0.78 µg/mL (≈ 0.672 µM); with Candida albicans [2] it was 0.39 µg/mL (≈ 0.336 µM); against Naganishia albida it was 6.25 µg/mL (≈ 5.39 µM); against Candida albicans [3], 0.78 µg/mL (≈ 0.672 µM); against Aspergillus niger it was 6.25 µg/mL (≈ 5.39 µM); against Kluyveromyces marxianus it was 0.78 µg/mL (≈ 0.672 µM). The minimum inhibitory concentration (MIC) against Candida albicans [4] is 0.78 µg/mL (≈ 0.672 µM); against Candida albicans [5], 0.39 µg/mL (≈ 0.336 µM); against Nakaseomyces glabratus, 1.56 µg/mL (≈ 1.34 µM); with Candida albicans [6], 0.39 µg/mL (≈ 0.336 µM); in assay [Candida] zeylanoides it was 1.56 µg/mL (≈ 1.34 µM).
Turning to `CCCCCCCCN1CCN(c2ccc(-c3ccc(C(=O)N[C@H]4CCCNC(=O)[C@@H]5C[C@H](N=C(N)N)CN5C(=O)[C@H]([C@@H](C)O)NC(=O)[C@H](CCc5ccc(O)c(C(=O)CN)c5)NC(=O)[C@@H]5C[C@@H](O)CN5C(=O)[C@H]([C@@H](C)O)NC4=O)cc3)cc2)CC1` (X5-[Orn]T[Hyp][hTyr(3-COCH2NH2)]T[Pro(cis-4-guanidino)]; lactam 1-C), the minimal inhibitory concentration (MIC) in the assay on Candida albicans [1] (setting [7]) came out at 0.2 µg/mL (≈ 0.167 µM); with Candida albicans [2] (setting [8]), 0.2 µg/mL (≈ 0.167 µM); with Naganishia albida (setting [9]) it was 12.5 µg/mL (≈ 10.5 µM); with Candida albicans [3] (setting [10]) it was 0.1 µg/mL (≈ 0.0837 µM); with Aspergillus niger (setting [11]) it was 3.12 µg/mL (≈ 2.61 µM); in the assay on Kluyveromyces marxianus (setting [12]), 1.56 µg/mL (≈ 1.31 µM). Besides, the MIC worked out at 0.2 µg/mL (≈ 0.167 µM) in the assay with Candida albicans [4] (setting [13]); 0.2 µg/mL (≈ 0.167 µM) in the assay on Candida albicans [5] (setting [10]); 1.56 µg/mL (≈ 1.31 µM) with Nakaseomyces glabratus (setting [14]); 0.1 µg/mL (≈ 0.0837 µM) in the assay with Candida albicans [6] (setting [10]); 0.2 µg/mL (≈ 0.167 µM) in assay [Candida] zeylanoides (setting [15]).
On to `CCCCCCCCOc1ccc(-c2ccc(-c3ccc(C(=O)N[C@H]4CCCNC(=O)[C@@H]5C[C@H](N)CN5C(=O)[C@H]([C@@H](C)O)NC(=O)[C@H](CCc5ccc(O)c(C(=O)CN)c5)NC(=O)[C@@H]5CCCN5C(=O)[C@H]([C@@H](C)O)NC4=O)cc3)cc2)cc1` (X7-[Orn]TP[hTyr(3-COCH2NH2)]T[Pro(4S-NH2)]; lactam 1-C), for which the MIC was determined as 0.78 µg/mL (≈ 0.682 µM) in the assay on Candida albicans [1] (setting [7]); 0.78 µg/mL (≈ 0.682 µM) with Candida albicans [2] (setting [8]); 12.5 µg/mL (≈ 10.9 µM) with Naganishia albida (setting [9]); 0.78 µg/mL (≈ 0.682 µM) with Candida albicans [3] (setting [10]); 25 µg/mL (≈ 21.8 µM) with Aspergillus niger (setting [11]); 0.78 µg/mL (≈ 0.682 µM) in the assay with Kluyveromyces marxianus (setting [12]). Also, the MIC was found to be 1.56 µg/mL (≈ 1.36 µM) with Candida albicans [4] (setting [13]); 0.78 µg/mL (≈ 0.682 µM) in the assay on Candida albicans [5] (setting [10]); 0.78 µg/mL (≈ 0.682 µM) in the assay with Nakaseomyces glabratus (setting [14]); 0.1 µg/mL (≈ 0.0874 µM) with Candida albicans [6] (setting [10]); 0.78 µg/mL (≈ 0.682 µM) in assay [Candida] zeylanoides (setting [15]).
For `CCCCCOc1ccc(-c2ccc(-c3ccc(C(=O)N[C@H]4CCCNC(=O)[C@@H]5C[C@H](N=C(N)N)CN5C(=O)[C@H]([C@@H](C)O)NC(=O)[C@H](CCc5ccc(O)c(C(=O)CCN)c5)NC(=O)[C@@H]5C[C@@H](O)CN5C(=O)[C@H]([C@@H](C)O)NC4=O)cc3)cc2)cc1` ({pTerphenylCO(4''-OnC5H11)}-[Orn]T[Hyp][X4]T[Pro(cis-4-guanidino)]; lactam 1-C), the MIC was found to be 0.2 µg/mL (≈ 0.17 µM) in the assay with Candida albicans [1] (setting [7]); 0.2 µg/mL (≈ 0.17 µM) in the assay with Candida albicans [2] (setting [8]); 12.5 µg/mL (≈ 10.6 µM) in the assay on Naganishia albida (setting [9]); 0.2 µg/mL (≈ 0.17 µM) in the assay with Candida albicans [3] (setting [10]); 6.25 µg/mL (≈ 5.32 µM) in the assay on Aspergillus niger (setting [11]); 1.56 µg/mL (≈ 1.33 µM) in the assay on Kluyveromyces marxianus (setting [12]). Besides, the MIC in the assay on Candida albicans [4] (setting [13]) is 0.39 µg/mL (≈ 0.332 µM); in the assay on Candida albicans [5] (setting [10]), 0.2 µg/mL (≈ 0.17 µM); in the assay on Nakaseomyces glabratus (setting [14]), 1.56 µg/mL (≈ 1.33 µM); with Candida albicans [6] (setting [10]), 0.2 µg/mL (≈ 0.17 µM); in [Candida] zeylanoides (setting [15]), 0.39 µg/mL (≈ 0.332 µM).
